Source: PubChem BioAssay (NCI)
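Each compound was tested at five concentrations against cells in 96-well plates for 48 hours. GI50 = concentration required for 50% inhibition of growth. The concentration for full growth arrest is given as TGI.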

How the values were obtained:
Experiment in all cases: inhibition of tumour cell growth, NCI panel, 48 h
COLO 205 colon = tested on: COLO 205 colon
ACHN renal = tested on: ACHN renal
HCT-116 colon = tested on: HCT-116 colon
HL-60(TB) leukemia = tested on: HL-60(TB) leukemia
SK-OV-3 ovarian = tested on: SK-OV-3 ovarian
SNB-19 CNS = tested on: SNB-19 CNS
OVCAR-3 ovarian = tested on: OVCAR-3 ovarian
U251 CNS = tested on: U251 CNS
HS 578T breast = tested on: HS 578T breast
LOX IMVI melanoma = tested on: LOX IMVI melanoma
OVCAR-4 ovarian = tested on: OVCAR-4 ovarian
OVCAR-5 ovarian = tested on: OVCAR-5 ovarian
MALME-3M melanoma = tested on: MALME-3M melanoma
MCF7 breast = tested on: MCF7 breast
MOLT-4 leukemia = tested on: MOLT-4 leukemia
NCI-H460 lung = tested on: NCI-H460 lung
HOP-62 NSCLC = tested on: HOP-62 NSCLC
HCC-2998 colon = tested on: HCC-2998 colon
A498 renal = tested on: A498 renal
EKVX NSCLC = tested on: EKVX NSCLC
SK-MEL-5 melanoma = tested on: SK-MEL-5 melanoma
SN12C renal = tested on: SN12C renal
786-0 renal = tested on: 786-0 renal
BT-549 breast = tested on: BT-549 breast
HCT-15 colon = tested on: HCT-15 colon
NCI-H522 lung = tested on: NCI-H522 lung
IGROV1 ovarian = tested on: IGROV1 ovarian
OVCAR-8 ovarian = tested on: OVCAR-8 ovarian
UACC-62 melanoma = tested on: UACC-62 melanoma
SK-MEL-28 melanoma = tested on: SK-MEL-28 melanoma
NCI-H23 lung = tested on: NCI-H23 lung
T-47D breast = tested on: T-47D breast
SF-268 CNS = tested on: SF-268 CNS
DU-145 prostate = tested on: DU-145 prostate
SK-MEL-2 melanoma = tested on: SK-MEL-2 melanoma
RXF 393 renal = tested on: RXF 393 renal
SF-539 CNS = tested on: SF-539 CNS
MDA-MB-435 = tested on: MDA-MB-435
NCI/ADR-RES ovarian = tested on: NCI/ADR-RES ovarian
MDA-MB-231 breast = tested on: MDA-MB-231 breast
KM12 colon = tested on: KM12 colon
UACC-257 melanoma = tested on: UACC-257 melanoma
CAKI-1 renal = tested on: CAKI-1 renal
K-562 leukemia = tested on: K-562 leukemia
HT29 colon = tested on: HT29 colon
SW-620 colon = tested on: SW-620 colon
TK-10 renal = tested on: TK-10 renal
SF-295 CNS = tested on: SF-295 CNS
A549 NSCLC = tested on: A549 NSCLC
M14 melanoma = tested on: M14 melanoma
NCI-H226 lung = tested on: NCI-H226 lung
SNB-75 CNS = tested on: SNB-75 CNS
UO-31 renal = tested on: UO-31 renal

COc1ccc(CN=C(N)N=C(N)N)cc1OC was tested, and the GI50 (COLO 205 colon) was > 1 mM, the TGI (COLO 205 colon) was > 1 mM and the GI50 (ACHN renal) was > 1 mM. For the same molecule, the TGI (ACHN renal) was > 1 mM, the GI50 (HCT-116 colon) was > 1 mM and the TGI (HCT-116 colon) was > 1 mM. The GI50 (HL-60(TB) leukemia) was 706 µM, the TGI (HL-60(TB) leukemia) was > 1 mM and the GI50 (SK-OV-3 ovarian) was > 1 mM. The TGI (SK-OV-3 ovarian) was > 1 mM, the GI50 (SNB-19 CNS) was 482 µM and the TGI (SNB-19 CNS) was > 1 mM. For the same molecule, the GI50 (OVCAR-3 ovarian) was 612 µM, the TGI (OVCAR-3 ovarian) was > 1 mM and the GI50 (U251 CNS) was 398 µM. For the same molecule, the TGI (U251 CNS) was > 1 mM, the GI50 (HS 578T breast) was > 1 mM and the TGI (HS 578T breast) was > 1 mM. The GI50 (LOX IMVI melanoma) was > 1 mM, the TGI (LOX IMVI melanoma) was > 1 mM and the GI50 (OVCAR-4 ovarian) was 215 µM. For the same molecule, the TGI (OVCAR-4 ovarian) was > 1 mM, the GI50 (OVCAR-5 ovarian) was > 1 mM and the TGI (OVCAR-5 ovarian) was > 1 mM. For the same molecule, the GI50 (MALME-3M melanoma) was 365 µM, the TGI (MALME-3M melanoma) was > 1 mM and the GI50 (MCF7 breast) was 855 µM. For the same molecule, the TGI (MCF7 breast) was > 1 mM, the GI50 (MOLT-4 leukemia) was > 1 mM and the TGI (MOLT-4 leukemia) was > 1 mM. For the same molecule, the GI50 (NCI-H460 lung) was > 1 mM, the TGI (NCI-H460 lung) was > 1 mM and the GI50 (HOP-62 NSCLC) was 602 µM. For the same molecule, the TGI (HOP-62 NSCLC) was > 1 mM, the GI50 (HCC-2998 colon) was > 1 mM and the TGI (HCC-2998 colon) was > 1 mM. For the same molecule, the GI50 (A498 renal) was 151 µM, the TGI (A498 renal) was > 1 mM and the GI50 (EKVX NSCLC) was 40.1 µM. For the same molecule, the TGI (EKVX NSCLC) was > 1 mM, the GI50 (SK-MEL-5 melanoma) was 223 µM and the TGI (SK-MEL-5 melanoma) was > 1 mM. The GI50 (SN12C renal) was 358 µM, the TGI (SN12C renal) was > 1 mM and the GI50 (786-0 renal) was > 1 mM. For the same molecule, the TGI (786-0 renal) was > 1 mM, the GI50 (BT-549 breast) was 260 µM and the TGI (BT-549 breast) was > 1 mM. The GI50 (HCT-15 colon) was > 1 mM, the TGI (HCT-15 colon) was > 1 mM and the GI50 (NCI-H522 lung) was 714 µM. The TGI (NCI-H522 lung) was > 1 mM, the GI50 (IGROV1 ovarian) was > 1 mM and the TGI (IGROV1 ovarian) was > 1 mM. For the same molecule, the GI50 (OVCAR-8 ovarian) was 444 µM, the TGI (OVCAR-8 ovarian) was > 1 mM and the GI50 (UACC-62 melanoma) was 558 µM. For the same molecule, the TGI (UACC-62 melanoma) was > 1 mM, the GI50 (SK-MEL-28 melanoma) was 960 µM and the TGI (SK-MEL-28 melanoma) was > 1 mM. For the same molecule, the GI50 (NCI-H23 lung) was 522 µM, the TGI (NCI-H23 lung) was > 1 mM and the GI50 (T-47D breast) was 907 µM. For the same molecule, the TGI (T-47D breast) was > 1 mM, the GI50 (SF-268 CNS) was 472 µM and the TGI (SF-268 CNS) was > 1 mM. For the same molecule, the GI50 (DU-145 prostate) was > 1 mM, the TGI (DU-145 prostate) was > 1 mM and the GI50 (SK-MEL-2 melanoma) was 859 µM. The TGI (SK-MEL-2 melanoma) was > 1 mM, the GI50 (RXF 393 renal) was > 1 mM and the TGI (RXF 393 renal) was > 1 mM. For the same molecule, the GI50 (SF-539 CNS) was > 1 mM, the TGI (SF-539 CNS) was > 1 mM and the GI50 (MDA-MB-435) was > 1 mM. For the same molecule, the TGI (MDA-MB-435) was > 1 mM, the GI50 (NCI/ADR-RES ovarian) was > 1 mM and the TGI (NCI/ADR-RES ovarian) was > 1 mM. For the same molecule, the GI50 (MDA-MB-231 breast) was > 1 mM, the TGI (MDA-MB-231 breast) was > 1 mM and the GI50 (KM12 colon) was > 1 mM. For the same molecule, the TGI (KM12 colon) was > 1 mM, the GI50 (UACC-257 melanoma) was 448 µM and the TGI (UACC-257 melanoma) was > 1 mM. The GI50 (CAKI-1 renal) was > 1 mM, the TGI (CAKI-1 renal) was > 1 mM and the GI50 (K-562 leukemia) was 362 µM. For the same molecule, the TGI (K-562 leukemia) was > 1 mM, the GI50 (HT29 colon) was > 1 mM and the TGI (HT29 colon) was > 1 mM. The GI50 (SW-620 colon) was > 1 mM, the TGI (SW-620 colon) was > 1 mM and the GI50 (TK-10 renal) was > 1 mM. For the same molecule, the TGI (TK-10 renal) was > 1 mM, the GI50 (SF-295 CNS) was 194 µM and the TGI (SF-295 CNS) was > 1 mM. For the same molecule, the GI50 (A549 NSCLC) was 404 µM, the TGI (A549 NSCLC) was > 1 mM and the GI50 (M14 melanoma) was > 1 mM. The TGI (M14 melanoma) was > 1 mM, the GI50 (NCI-H226 lung) was 619 µM and the TGI (NCI-H226 lung) was > 1 mM. For the same molecule, the GI50 (SNB-75 CNS) was 192 µM, the TGI (SNB-75 CNS) was > 1 mM and the GI50 (UO-31 renal) was > 1 mM. For the same molecule, the TGI (UO-31 renal) was > 1 mM.
